Several values for one entry are separate records, joined by “and”; a condition that tells them apart may be missing. Equal values may be shown once. Read-outs that look alike come from different tables or passages of the source.
Columns and labels:
[1] = system: Fusarium culmorum; type: cell-based
[2] = system: Fusarium graminearum; type: cell-based; details: 22 hours incubation; modified RPMI medium, 25 degrees Celsius; concentration not given
[3] = system: Phytophthora infestans; type: cell-based; details: 7 days incubation; modified RPMI medium, 25 degrees Celsius; concentration not given
[4] = system: Zymoseptoria tritici; type: cell-based
[5] = system: Fusarium conidial suspension; assay: Fusarium viability colorimetric assay (PrestoBlue resazurin); type: cell-based
Description: A Fusarium conidial suspension was prepared from a 7-day culture of Fusarium biomass grown on potato dextrose agar for 7 days, and quantified by hemocytometer, as described in Example 4. Solutions of fenpiclonil (Millipore Sigma, Cat. no. 36532) and of the individual peptides were prepared in 50% (w/v) ethanol in water, and tested using a PrestoBlue™ (resazurin) viability colorimetric assay as described in Example 4.
The Fusarium conidial suspension, peptide or control treatment solution, and potato dextrose broth (Alpha Biosciences, catalogue no. P16-126) were added to each well of a 96-well plate to obtain the desired treatment concentration and 1×10^6 conidia/mL in a final volume of 150 microliters per well. The plates were covered and incubated at 30° C. for 18 hours and 200 rpm. Fifteen microliters of PrestoBlue™ Cell Viability Reagent (Thermofisher Scientific, Cat no. A13262) were added to each well, and the plate was further incubated before measuring fluorescence at 590 nm emission with excitation at 560 nm using a spectrophotometer (BioTek Synergy H1 Microplate Reader, Fischer Scientific, Cat. no. 11-120-533).

[6] = system: Botrytis cinarea (strain CBS 261.71); assay: Botrytis viability colorimetric assay (PrestoBlue resazurin); type: cell-based, Botrytis cinerea; details: 375 micromolar
[7] = system: Botrytis cinerea; assay: Fungal lesion size on detached Nicotiana benthamiana leaves after topical treatment; type: in vivo, Botrytis cinerea on Nicotiana benthamiana leaves
Description: In one experiment, leaves of similar age were cut from healthy Nicotiana benthamiana plants and the petioles set into plates containing water agar. Leaves were visually divided into quadrants. […] The plates were covered and placed in a humidified secondary container and incubated in a growth chamber under a 14-hour light (20 degrees C.): 10-hour dark (18 degrees C.) cycle. After 11 days, fungal lesions on leaves were photographed and measured manually with a ruler. Leaves were then destained in 70% ethanol for 48 hours with a change of ethanol at 24 hours, rehydrated in water for at least 1 hour, photographed, and the area of the fungal lesions quantified using ImageJ software (see imagej[dot]nih[dot]gov/ij/). […] The leaf quadrants inoculated with B. cinerea and treated with 100 microliters of treatment solution (MES buffer or HH38 in MES buffer) had comparatively larger areas wetted with liquid. All of the leaf quadrants treated with 5 mM MES buffer developed large (average 1.72 cm width) fungal lesions characterized by grey-black fungal growth. […] […] Twenty microliters of a given treatment mixture were pipetted onto a leaf quadrant (3 replicate leaves per treatment for a total of 12 quadrants). After 7 days incubation in a growth chamber, leaves were photographed, destained in 70% ethanol, photographed again, and the area of the fungal lesions quantified using ImageJ software. […] The fungal lesions in the HH38 treatment were also observed to be 39% smaller than in the 2% DMSO treatment, and 19% smaller than in the 5 mM MES treatment, although not to a statistically significant degree using an unpaired t test.

[8] = system: Aspergillus fumigatus CBS 120.53; assay: Micro broth dilution assay in 96-well plates; type: cell-based; details: 3 days of incubation; 375 micromolar or 187.5 micromolar; preliminary
[9] = system: Aspergillus flavus DSM 1959; assay: Micro broth dilution assay in 96-well plates; type: cell-based; details: 3 days of incubation; 375 micromolar or 187.5 micromolar; preliminary
[10] = system: Fusarium oxysporum CBS 130311; assay: Micro broth dilution assay in 96-well plates; type: cell-based; details: 3 days of incubation; 375 micromolar or 187.5 micromolar; preliminary
[11] = system: Mucor circinelloides f. janssenii CBS 204.68; assay: Micro broth dilution assay in 96-well plates; type: cell-based; details: 3 days of incubation; 375 micromolar or 187.5 micromolar; preliminary
[12] = system: Rhizomucor miehei CBS 147454; assay: Micro broth dilution assay in 96-well plates; type: cell-based; details: 3 days of incubation; 375 micromolar or 187.5 micromolar; preliminary
[13] = system: Cryptococcus neoformans DSM 70219; assay: Micro broth dilution assay in 96-well plates; type: cell-based; details: 2 days of incubation; 375 micromolar; preliminary
[14] = system: conidia of Fusarium proliferatum; assay: oCelloScope live-cell imaging of fungal growth (SESA algorithm); type: cell-based
[15] = system: Nicotiana benthamiana leaves; assay: Phytotoxicity at the treatment site on detached leaves; type: in vivo; details: 275 micromolar in 50% ethanol, 100 microliters on leaf quadrant
[16] = first experiment, 275 micromolar HH38 in 5 mM MES buffer, after 11 days, lesion area by ImageJ, replicate leaves 1-3
[17] = first experiment, 275 micromolar HH38 in 5 mM MES buffer, after 11 days, ruler, replicate leaves 1-3
[18] = second experiment, inoculum pre-mixed with HH38, 7 days, ImageJ area, not statistically significant

WHWLQLKPGQPMYRRRRRRRR [SEQ ID NO: 2240]
inhibition relative to a control [1]: ≥ 50%
inhibition relative to a control [2]: ≥ 50%
inhibition relative to a control [3]: ≥ 50%
inhibition relative to a control [4]: ≥ 50%

WHWLQLKPGQPMYGGGGSWHWLQLKPGQPMY (listed as Saccharomyces cerevisiae) [SEQ ID NO: 2189, Saccharomyces cerevisiae alpha pheromone homodimer including glycine linker]
Percent Inhibition (Fusarium), Experiment 5, Mean [5]: 79.77%
Botrytis cell viability versus untreated / 50% ethanol carrier [6]: reducing Botrytis cell viability as well as did the fenpiclonil treatment
Percent Inhibition (Botrytis), Mean ([6]; four replicates): 79.77%
viability decrease relative to that obtained with the positive control (fenpiclonil) ([6]; sentence prints Fusarium in the Botrytis assay): roughly about two-thirds of the viability decrease obtained using the positive control
Lesion 1 (cm) ([7]; first experiment, 275 micromolar HH38 in 5 mM MES buffer, 100 microliters per inoculated leaf quadrant, after 11 days, measured with a ruler, replicate leaves 1-3): 0 cm
Lesion 1 (pixels) ([7]; first experiment, 275 micromolar HH38 in 5 mM MES buffer, after 11 days, destained leaves, lesion area by ImageJ, replicate leaves 1-3): 0 pixels
Treatment Average (pixels) ([7]; first experiment, 275 micromolar HH38 in 5 mM MES buffer, after 11 days, lesion area by ImageJ, average of 3 leaves): 157 pixels
Replicate Averages (pixels) ([7]; first experiment, 275 micromolar HH38 in 5 mM MES buffer, after 11 days, lesion area by ImageJ, average of 4 quadrants): 0.00 pixels (2×) and 472 pixels
Lesion 2 (pixels) [7, 16]: 0 pixels (2×) and 1889 pixels
Lesion 3 (pixels) [7, 16]: 0 pixels
Lesion 4 (pixels) [7, 16]: 0 pixels
Treatment Average (cm) ([7]; first experiment, 275 micromolar HH38 in 5 mM MES buffer, after 11 days, ruler, average of 3 leaves): 0.042 cm
Average (cm) per replicate leaf ([7]; first experiment, 275 micromolar HH38 in 5 mM MES buffer, after 11 days, ruler, average of 4 quadrants): 0 cm (2×) and 0.12 cm
Lesion 2 (cm) [7, 17]: 0 cm (2×) and 0.5 cm
Lesion 3 (cm) [7, 17]: 0 cm
Lesion 4 (cm) [7, 17]: 0 cm
leaf quadrants that developed any measurable fungal lesion ([7]; first experiment, result sentence prints 375 micromolar HH38 (method: 275 micromolar), after 11 days): 1 out of 12
fungal lesions smaller than in the 5 mM MES treatment [7, 18]: 19%
fungal lesions smaller than in the 2% DMSO treatment [7, 18]: 39%
fungal lesions smaller than the untreated (diluted grape juice) control ([7]; second experiment, inoculum pre-mixed with in 2% DMSO in 5 mM MES buffer, 7 days, ImageJ area, statistically significant (unpaired t test)): 44%
inhibition of growth / growth pattern [8]: sometimes induced changes in growth pattern
inhibition of growth / growth pattern [9]: sometimes induced changes in growth pattern
inhibition of growth / growth pattern [10]: sometimes induced changes in growth pattern
inhibition of growth / growth pattern [11]: sometimes induced changes in growth pattern
inhibition of growth / growth pattern [12]: sometimes induced changes in growth pattern
growth / growth pattern [13]: change this species' growth pattern
statistical significance of antifungal activity [14]: statistically significant antifungal activity

N#Cc1c[nH]cc1-c1cccc(Cl)c1Cl [Fenpiclonil, 4-(2,3-dichlorophenyl)-1H-pyrrole-3-carbonitrile, reference compound]
Percent Inhibition (Fusarium), Experiment 4, Mean ([5]; Experiment 4, four replicates, protocol and peptides as third experiment (175 and 375 micromolar), concentration not given): 82.25%
Percent Inhibition (Fusarium), Experiment 5, Mean ([5]; Experiment 5, four replicates, protocol and peptides as third experiment (175 and 375 micromolar), concentration not given): 79.19%
inhibition at 375 µM ([6]; Botrytis, CBS261, four replicates, read-out: Percent Inhibition (Botrytis), Mean): 75.8%
phytotoxicity (tissue necrosis at the treatment site) [15]: phytotoxic

Source: patent US20250287945A1, “COMPOSITIONS FOR FUNGAL CONTROL AND RELATED METHODS” (priority 2021, published 2025)
